Source: ChEMBL document CHEMBL1201862, “PubChem BioAssay data set” (2004)
Several values for one entry are separate records, joined by “and”; a condition that tells them apart may be missing. Identical values can stand only once.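 Exposure lasted 48 hours, with cells grown in 96-well plates and compounds tested at five concentrations. The concentration for 50% growth inhibition is given as GI50.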 Activity calls are given as the source filed them. Cut-off read from the data, not from the text of the source: active = GI50 up to about 1.1 µM and inactive = higher. Non-standard residues stand in square brackets, D forms with d. Residues, ends and D or L forms follow the SMILES beside them. ξ: configuration not given here. *: point of attachment. NMeF = CN[C@@H](Cc1ccccc1)C(=O)O; ξNMeV = CNC(C(=O)O)C(C)C; Boc = CC(C)(C)OC(=O)*; OBn = c1ccc(CO*)cc1

Tests used:
Test in all cases: NCI-60 cell line screen, 48 h
OVCAR-3 = test system: OVCAR-3
SF-295 = test system: SF-295
HCT-15 = test system: HCT-15
COLO 205 = test system: COLO 205
UACC-257 = test system: UACC-257
CCRF-CEM = test system: CCRF-CEM
NCI-H226 = test system: NCI-H226
MOLT-4 = test system: MOLT-4
SNB-19 = test system: SNB-19
CAKI-1 = test system: CAKI-1
NCI-H23 = test system: NCI-H23
IGROV-1 = test system: IGROV-1
HL-60 = test system: HL-60
K562 = test system: K562
A549 = test system: A549
ACHN = test system: ACHN
RPMI-8226 = test system: RPMI-8226

SMILES | GI50 (OVCAR-3) | GI50 (SF-295) | GI50 (HCT-15) | GI50 (COLO 205) | GI50 (UACC-257) | GI50 (CCRF-CEM) | GI50 (NCI-H226) | GI50 (MOLT-4) | GI50 (SNB-19) | GI50 (CAKI-1) | GI50 (NCI-H23) | GI50 (IGROV-1) | GI50 (HL-60) | GI50 (K562) | GI50 (A549) | GI50 (ACHN) | GI50 (RPMI-8226)
COC(=O)C(C(=O)C(=O)Nc1ccc([N+](=O)[O-])cc1)c1nc2ccc([N+](=O)[O-])cc2nc1O (stereo not given) | > 100 µM (inactive) | > 100 µM (inactive) | > 100 µM | > 100 µM (inactive) | > 100 µM (inactive) | 55.2 µM (inactive) | > 100 µM (inactive) | > 100 µM (inactive) | > 100 µM (inactive) | > 100 µM (inactive) | > 100 µM (inactive) | > 100 µM (inactive) | 41.9 µM (inactive) | 39.2 µM (inactive) | > 100 µM (inactive) | > 100 µM (inactive) | 
Cc1ccc(N2C(=O)/C(=C3\Sc4c(nc(C)[nH]c4=O)N3c3ccccc3)SC2=S)cc1 | 18.4 µM (inactive) | 18 µM (inactive) | 16.4 µM | > 100 µM (inactive) | > 100 µM (inactive) | 44.6 µM (inactive) | 30.5 µM (inactive) |  | 37.3 µM (inactive) | > 100 µM (inactive) | 19.8 µM (inactive) | 60.3 µM (inactive) | > 100 µM (inactive) | 32 µM (inactive) | 43 µM (inactive) | 28.8 µM (inactive) | > 100 µM (inactive)
CN(c1nc(=[N+](C)C)ss1)C1CCCCC1 |  | 93.1 µM (inactive) | > 100 µM |  | > 100 µM (inactive) | 6.92 µM (inactive) | > 100 µM (inactive) | 95.1 µM (inactive) | 70.5 µM (inactive) | > 100 µM (inactive) | 74.3 µM (inactive) | > 100 µM (inactive) | > 100 µM (inactive) | > 100 µM (inactive) | 38.3 µM (inactive) | > 100 µM (inactive) | 62.1 µM (inactive)
NC(=O)CCC(Nc1c2ccccc2nc2ccccc12)C(=O)O (stereo not given) | 56.8 µM (inactive) | > 100 µM (inactive) | > 100 µM | > 100 µM (inactive) | 65.8 µM (inactive) | > 100 µM (inactive) | > 100 µM (inactive) | 58.1 µM (inactive) |  | > 100 µM (inactive) | > 100 µM (inactive) |  | 15.3 µM (inactive) | 45.7 µM (inactive) | > 100 µM (inactive) | 91 µM (inactive) | 17.2 µM (inactive)
O=C1c2ccccc2N2OC3(N4CCCC4)CCCC3C12c1ccccc1 (stereo not given) |  | 86.1 µM (inactive) | > 100 µM | > 100 µM (inactive) | 71.6 µM (inactive) | > 100 µM (inactive) | > 100 µM (inactive) | 49.9 µM (inactive) | > 100 µM (inactive) |  | > 100 µM (inactive) | > 100 µM (inactive) | 43.3 µM (inactive) | 76.6 µM (inactive) | 68.5 µM (inactive) | > 100 µM (inactive) | 62.8 µM (inactive)
COc1cccc2c(SCC(=O)Nc3ccccc3-c3ccccc3NC(=O)CSc3c4ccccc4nc4c(OC)cccc34)c3ccccc3nc12 | > 100 µM (inactive) | > 100 µM (inactive) | > 100 µM | > 100 µM (inactive) |  | > 100 µM (inactive) | > 100 µM (inactive) | > 100 µM (inactive) | > 100 µM (inactive) |  | > 100 µM (inactive) | 43.1 µM (inactive) | 9.93 µM (inactive) | 74.3 µM (inactive) | > 100 µM (inactive) | > 100 µM (inactive) | 
CCCC(N)C(=O)c1ccccc1 (stereo not given) | > 100 µM (inactive) | > 100 µM (inactive) | > 100 µM | > 100 µM (inactive) | > 100 µM (inactive) | > 100 µM (inactive) | > 100 µM (inactive) |  | > 100 µM (inactive) | > 100 µM (inactive) | > 100 µM (inactive) | > 100 µM (inactive) | > 100 µM (inactive) | > 100 µM (inactive) | > 100 µM (inactive) | > 100 µM (inactive) | > 100 µM (inactive)
COc1ccc2nc3cc(Cl)ccc3c(Sc3ccc([N+](=O)[O-])cc3C)c2c1 | > 100 µM (inactive) | > 100 µM (inactive) | > 100 µM | 4.06 µM (inactive) | > 100 µM (inactive) | > 100 µM (inactive) | > 100 µM (inactive) | > 100 µM (inactive) | > 100 µM (inactive) | > 100 µM (inactive) | > 100 µM (inactive) | > 100 µM (inactive) |  | > 100 µM (inactive) | > 100 µM (inactive) | > 100 µM (inactive) | 
CC(=O)O[C@H]1CC[C@@]2(C)C(=CC[C@@H]3C2CC[C@]2(C)C(=O)NC(=O)CC32)C1 (stereo not given in full) |  | > 100 µM (inactive) | 68.4 µM | > 100 µM (inactive) | > 100 µM (inactive) | > 73.8 µM (inactive) | > 100 µM (inactive) | > 100 µM (inactive) | > 100 µM (inactive) | > 100 µM (inactive) | > 100 µM (inactive) | > 100 µM (inactive) | > 63.1 µM (inactive) | > 56 µM (inactive) | > 100 µM (inactive) | > 100 µM (inactive) | 
C=C/C=C/NC(=O)OCc1ccccc1 | > 100 µM (inactive) | > 100 µM (inactive) |  | > 100 µM (inactive) | > 100 µM (inactive) | > 100 µM (inactive) |  | > 100 µM (inactive) | > 100 µM (inactive) | > 100 µM (inactive) |  | > 100 µM (inactive) | > 100 µM (inactive) | > 100 µM (inactive) | > 100 µM (inactive) | > 100 µM (inactive) | 82.8 µM (inactive)
Nc1ccc(C(=O)O)c2[nH]c3ccccc3c(=O)c12 |  | > 100 µM (inactive) | > 100 µM | > 100 µM (inactive) | > 100 µM (inactive) | 88.7 µM (inactive) |  | > 100 µM (inactive) | > 100 µM (inactive) | > 100 µM (inactive) |  | > 100 µM (inactive) | > 100 µM (inactive) | > 100 µM (inactive) | > 100 µM (inactive) | > 100 µM (inactive) | > 100 µM (inactive)
CC1=C(C(=O)Nc2c(C)cccc2C)C(c2ccc3c(c2)OCO3)C(C(=O)Nc2c(C)cccc2C)=C(C)N1 | 36.3 µM (inactive) | 16.5 µM (inactive) |  | 21.9 µM (inactive) | 16.6 µM (inactive) | 7.36 µM (inactive) | 17.5 µM (inactive) | 15 µM (inactive) | 15.3 µM (inactive) | 25.1 µM (inactive) | 16.1 µM (inactive) | 4.2 µM (inactive) | 16.3 µM (inactive) | 13.4 µM (inactive) | 19.7 µM (inactive) | 17.5 µM (inactive) | 
CCCCCC(CN1CCOCC1)C(=O)/C=C/c1ccccc1 (stereo not given) | 2.3 µM (inactive) | 3.46 µM (inactive) | 2.03 µM | 3.77 µM (inactive) | 2.96 µM (inactive) | 1.94 µM (inactive) | 3.36 µM (inactive) | 1.71 µM (inactive) | 3.43 µM (inactive) |  | 3.36 µM (inactive) | 3.37 µM (inactive) | 1.85 µM (inactive) | 2.16 µM (inactive) | 3.3 µM (inactive) |  | 2.11 µM (inactive)
O=S(O)CCCCSSCC(O)C(O)CSSCCCCS(=O)O (stereo not given) | 11.4 µM (inactive) and 12.4 µM (inactive) | 15.5 µM (inactive) and 12.4 µM (inactive) | 30.5 µM and 29.6 µM | 18.5 µM (inactive) and 14.6 µM (inactive) | 8.39 µM (inactive) and 4.7 µM (inactive) | 3.37 µM (inactive) and 3.21 µM (inactive) |  | 918 nM (active) and 697 nM (active) | 50 µM (inactive) and 55.6 µM (inactive) | 51.6 µM (inactive) and 56.9 µM (inactive) | 18.4 µM (inactive) and 29.2 µM (inactive) | 83.6 µM (inactive) and 44.5 µM (inactive) | 10.2 µM (inactive) and 10.6 µM (inactive) | 18.7 µM (inactive) and 12.6 µM (inactive) | 34.5 µM (inactive) and 27.1 µM (inactive) | 26.1 µM (inactive) and 22.1 µM (inactive) | 13.5 µM (inactive) and 11.8 µM (inactive)
CCN(CC)CCCCC1CCN(CC(=O)N2c3ccccc3NC(=O)c3ccccc32)CC1 | > 100 µM (inactive) | > 100 µM (inactive) |  | > 100 µM (inactive) | 48.1 µM (inactive) | 64.9 µM (inactive) | > 100 µM (inactive) | > 100 µM (inactive) | > 100 µM (inactive) | > 100 µM (inactive) | 55.6 µM (inactive) |  | > 100 µM (inactive) | > 100 µM (inactive) | > 100 µM (inactive) |  | > 100 µM (inactive)
CC1CCCCc2nc3c(c(=O)n21)CCCC3 (stereo not given) | > 100 µM (inactive) | > 100 µM (inactive) | > 100 µM | > 100 µM (inactive) | > 100 µM (inactive) |  | > 100 µM (inactive) | > 100 µM (inactive) | > 100 µM (inactive) | > 100 µM (inactive) | > 100 µM (inactive) | > 100 µM (inactive) |  | > 100 µM (inactive) | > 100 µM (inactive) | > 100 µM (inactive) | 
CC(C)C(C(=O)N1CCC[C@@H]1C(=O)OCc1ccccc1)N(C)C(=O)C(C(C)C)N(C)C(=O)[C@H](Cc1ccccc1)N(C)C(=O)[C@H](NC(=O)OC(C)(C)C)C(C)C (stereo not given in full) (Boc-[dV][NMeF][ξNMeV][ξNMeV][dP]-OBn) | > 56.6 µM (inactive) | 9.04 µM (inactive) | > 30.9 µM | > 100 µM (inactive) | 13.6 µM (inactive) | > 54.5 µM (inactive) | > 100 µM (inactive) | 7.94 µM (inactive) | > 100 µM (inactive) |  | > 81.3 µM (inactive) | > 100 µM (inactive) | 4.12 µM (inactive) | 13.7 µM (inactive) | 6.55 µM (inactive) | 16.7 µM (inactive) | 10.9 µM (inactive)
